# Reference: US9550775B2, “Substituted triazolopyridines and methods of use thereof” (GENENTECH, INC., priority 2013, dated 2017)
# What was measured:
# hNav1.7 = hNav1.7 (Homo sapiens (Human), UniProt Q15858); test: Tritiated sulfonamide competitive binding to membranes from cells expressing hNav1.7 and the β1 subunit; details: 100 pM [3H]compound, 18 h, room temperature; inactivated state of NaV1.7 membrane binding; read-out: NaV1.7 Ligand Binding Assay (IC50);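 also: displacement of the tritiated ligand from recombinant cell membranes, read by liquid scintillation counting of filter-bound radioactivity, nonspecific binding defined with 1 µM unlabelled compound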
# Sequence of hNav1.7 (Q15858 other isoform, or with tags, fused parts or gaps): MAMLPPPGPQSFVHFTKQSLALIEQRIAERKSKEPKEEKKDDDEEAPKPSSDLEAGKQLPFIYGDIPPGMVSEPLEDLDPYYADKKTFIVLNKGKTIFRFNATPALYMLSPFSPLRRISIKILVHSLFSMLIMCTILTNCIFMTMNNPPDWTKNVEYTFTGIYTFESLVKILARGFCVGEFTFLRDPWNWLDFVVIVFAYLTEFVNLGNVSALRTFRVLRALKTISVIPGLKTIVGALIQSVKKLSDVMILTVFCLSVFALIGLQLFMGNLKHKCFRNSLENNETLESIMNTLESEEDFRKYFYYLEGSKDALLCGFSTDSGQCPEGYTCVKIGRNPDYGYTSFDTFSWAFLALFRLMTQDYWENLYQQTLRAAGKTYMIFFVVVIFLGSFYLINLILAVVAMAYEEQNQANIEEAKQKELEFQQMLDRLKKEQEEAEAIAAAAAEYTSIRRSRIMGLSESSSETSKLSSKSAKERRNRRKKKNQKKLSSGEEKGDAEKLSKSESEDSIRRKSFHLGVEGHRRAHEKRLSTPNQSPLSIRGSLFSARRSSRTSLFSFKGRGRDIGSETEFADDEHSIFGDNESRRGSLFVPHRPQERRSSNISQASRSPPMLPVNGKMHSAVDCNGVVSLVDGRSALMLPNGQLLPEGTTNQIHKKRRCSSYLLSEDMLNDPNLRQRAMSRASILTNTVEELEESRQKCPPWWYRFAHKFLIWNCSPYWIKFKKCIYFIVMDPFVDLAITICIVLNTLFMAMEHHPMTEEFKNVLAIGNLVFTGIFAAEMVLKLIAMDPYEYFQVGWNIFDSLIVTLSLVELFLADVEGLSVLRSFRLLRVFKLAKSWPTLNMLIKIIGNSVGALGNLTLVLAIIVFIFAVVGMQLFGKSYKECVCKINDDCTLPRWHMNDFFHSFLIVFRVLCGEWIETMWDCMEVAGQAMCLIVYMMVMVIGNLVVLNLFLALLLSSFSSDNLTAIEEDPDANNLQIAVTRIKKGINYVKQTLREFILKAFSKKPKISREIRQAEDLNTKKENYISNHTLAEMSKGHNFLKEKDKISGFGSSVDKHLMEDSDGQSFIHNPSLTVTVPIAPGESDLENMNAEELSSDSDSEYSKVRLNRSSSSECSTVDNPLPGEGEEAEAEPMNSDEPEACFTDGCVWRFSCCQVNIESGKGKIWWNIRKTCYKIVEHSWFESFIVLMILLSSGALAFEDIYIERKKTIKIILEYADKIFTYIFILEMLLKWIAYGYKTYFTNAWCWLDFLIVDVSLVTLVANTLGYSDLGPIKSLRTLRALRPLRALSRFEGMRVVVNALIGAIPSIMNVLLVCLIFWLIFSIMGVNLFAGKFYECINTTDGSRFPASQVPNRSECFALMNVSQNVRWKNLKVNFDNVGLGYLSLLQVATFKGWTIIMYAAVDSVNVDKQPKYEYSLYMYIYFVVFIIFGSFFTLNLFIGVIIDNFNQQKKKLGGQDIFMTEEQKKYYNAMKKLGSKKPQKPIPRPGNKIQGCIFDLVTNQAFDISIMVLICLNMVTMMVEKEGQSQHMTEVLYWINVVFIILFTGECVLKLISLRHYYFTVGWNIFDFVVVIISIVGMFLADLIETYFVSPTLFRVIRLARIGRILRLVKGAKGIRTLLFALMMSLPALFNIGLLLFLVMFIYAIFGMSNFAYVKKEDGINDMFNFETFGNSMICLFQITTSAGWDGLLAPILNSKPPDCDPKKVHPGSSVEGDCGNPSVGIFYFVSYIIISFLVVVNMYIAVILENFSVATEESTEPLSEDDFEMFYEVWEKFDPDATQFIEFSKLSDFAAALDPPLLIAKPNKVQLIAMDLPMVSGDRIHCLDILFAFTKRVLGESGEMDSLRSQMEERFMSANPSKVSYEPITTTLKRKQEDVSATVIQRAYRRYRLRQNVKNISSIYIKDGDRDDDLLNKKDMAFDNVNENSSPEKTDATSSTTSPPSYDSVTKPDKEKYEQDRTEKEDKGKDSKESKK
# Sequence of hNav1.7 (Q07699 19-218 partner): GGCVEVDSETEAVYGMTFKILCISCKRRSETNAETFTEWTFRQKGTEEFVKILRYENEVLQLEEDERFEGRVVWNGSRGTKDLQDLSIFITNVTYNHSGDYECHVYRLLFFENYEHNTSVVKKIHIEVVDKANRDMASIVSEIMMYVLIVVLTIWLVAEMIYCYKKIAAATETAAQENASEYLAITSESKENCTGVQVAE
# [1] = molecular target: human NaV1.7 (with β1 subunit) stably expressed in HEK-293 cells (Homo sapiens (Human), UniProt Q15858); test: Patch voltage clamp electrophysiology assay (EP), inactivated-state block; format: cell-based; details: membrane potential held at -60 mV; read-out: affinity for the inactivated state of NaV1.7
# Sequence of human NaV1.7 (with β1 subunit) stably expressed in HEK-293 cells (Q15858 other isoform, or with tags, fused parts or gaps): as the sequence (Q15858 other isoform, or with tags, fused parts or gaps) above
# Sequence of human NaV1.7 (with β1 subunit) stably expressed in HEK-293 cells (Q07699 19-218 partner): as the sequence (Q07699 19-218 partner) above
# Procedure: Patch voltage clamp electrophysiology allows for the direct measurement and quantification of block of voltage-gated sodium channels (NaV's), and allows the determination of the time- and voltage-dependence of block which has been interpreted as differential binding to the resting, open, and inactivated states of the sodium channel (Hille, B., Journal of General Physiology (1977), 69: 497-515).
# Currents were recorded at 40 kHz sampling frequency, filtered at […], and stored using a Digidata-1322A analogue/digital interface with the pClamp software (Axon Instruments). Series resistance compensation was applied (60-80%). […] All statistics in this study are given as mean±SD.
# The membrane potential was maintained at a voltage where inactivation of the channel is complete (which was −60 mV for both NaV1.7 and NaV1.5). The voltage is then stepped back to a very negative (Vhold=[…]) voltage for 20 ms and then a test pulse is applied to quantify the compound block. The 20 ms brief repolarization was long enough for compound-free channels to completely recover from fast inactivation, but the compound-bound channels recovered more slowly such that negligible recovery could occur during this interval. The percent decrease in sodium current following wash-on of compound was taken as the percent block of sodium channels.
structure (smiles),measurement,setting,value
"CS(=O)(=O)Nc1nnc2cc(COc3ccc(Cl)c(Cl)c3)c(Br)cn12 [Example 55, N-(6-bromo-7-((3,4-dichlorophenoxy)methyl)-[1,2,4]-triazolo[4,3-a]pyridin-3-yl)-methanesulfonamide]",IC50,hNav1.7,2.6 nM
same,IC50,[1],2.6 nM
